Source: PMC11861906, “Structural basis for lipid-mediated activation of G protein-coupled receptor GPR55” (Nature Communications, 2025)

Assays:
Format in all cases: cell-based
[1] = target: GPR55 mutant G152W (Gα13) (Homo sapiens, UniProt Q9Y2T6, G152W); test: BRET² G protein dissociation assay, GPR55 G152W with Gα13
Text: (§1) To validate the functionality of the GPR55 cryo-EM construct, we conducted bioluminescence resonance energy transfer 2 (BRET²)-based G protein dissociation assays[46],[47] using an engineered heterotrimeric G13 protein. The N-terminal GFP fusion of the receptor was additionally modified with a G67A mutation to disrupt fluorescence properties. We employed human embryonic kidney (HEK) cells overexpressing wt or mutant GPR55 together with Gβ3, Gγ9-GFP, and Gα13 tagged with Renilla luciferase 8 (Rluc8).
(§2) G protein dissociation assays were performed according to the original protocols of the TRUPATH BRET² assay[47],[87] but with subtle modifications as previously described[61],[88],[89]. All reagents and cells were obtained from Thermo Fisher Scientific unless indicated otherwise. The coding sequences for the G protein biosensors[47] (Gα12-Rluc8, Gα13-Rluc8, wt Gβ3, and Gγ9-GFP), the wt GPR55, the construct used for cryo-EM (with GFP bearing a G67A mutation to disrupt fluorescence properties[48] for BRET² assays), GPR55 binding pocket mutants (G152^4.56F, G152^4.56W, N171^ECL2Q, N171^ECL2A, T176^5.33A, R253^6.62A), and the wt TBXA2R were codon-optimized for Homo sapiens, gene-synthesized, and sub-cloned into pcDNA^TM3.1(+) between NheI and HindIII restriction sites by GeneArt (Thermo Fisher Scientific). […] Freshly grown cells were washed with Dulbecco’s Balanced Salt Solution (DPBS, cat. #14200075) and detached using trypsin-ethylenediaminetetraacetic acid (trypsin-EDTA) (cat. #25300-062). Then, the cells were reconstituted to 500,000 cells per mL with fresh medium, and 1,000,000 cells were seeded into each well of a 6-well plate. After 3 h incubation at 37 °C and 5% CO2, adherent cells were transfected with 600 ng DNA (1:1:1:1 ratio of plasmid DNA for GPR55, wt Gβ3, Gγ9-GFP, and Gα12-Rluc8 or Gα13-Rluc8). Plasmid DNA was mixed with 1.5 µL Lipofectamine^TM 2000 (cat. #11668027) in Opti-MEM^TM medium (cat. #31985062) and incubated for 20 min. Then, the mixture was added to each well of the 6-well plate following 24 h incubation at 37 °C and 5% CO2. Transfected cells were washed with DPBS, detached using EDTA (Versene, cat. #15040066), and reconstituted into fresh medium at 500,000 cells mL^−1. From this suspension, 50,000 cells were seeded into each well of a white-bottom 96-well plate (Nunc^TM MicroWell^TM 96 wells, cat. #136101) following overnight incubation at 37 °C and 5% CO2. Then, the adherent cells were washed with assay medium [Hank’s balanced salt solution (HBSS, cat. #14065056) plus 20 mM HEPES pH 7.4 (cat. #15630056)] and finally reconstituted into 50 µL of the same medium. […] Methoxy e-Coelenterazine was used as luciferase substrate (Prolume Purple, NanoLight Technology, cat. #369), reconstituted at 1 mM in methanol and diluted to 37.5 µM with assay buffer (7.5 µM final assay concentration). The assay was started by the addition of 20 µL luciferase substrate to each well of the assay plate using a Multidrop^TM Combi reagent dispenser (Thermo Fisher Scientific), followed by 5 min incubation at room temperature. Then, 30 µL of agonist dilutions or DMSO control was added (final DMSO concentration 1.5%), followed by an additional 5 min incubation at room temperature. BRET² measurements were performed with a PHERAstar® FSX microplate reader (BMG LABTECH) using a BRET² filter (donor emission 370–450 nm, acceptor emission 500–530 nm) at the maximum fluorescence gain of 3600. BRET² ratios were calculated by dividing GFP emission signals from Rluc8 emission counts. Buffer-DMSO controls were subtracted from each data point to calculate ΔBRET² ratios.

[2] = target: GPR55 mutant N171A (Gα13) (Homo sapiens, UniProt Q9Y2T6, N171A); test: BRET² G protein dissociation assay, GPR55 N171A with Gα13
Text: as §1, §2

[3] = target: GPR55 cryo-EM construct (Gα13) (Homo sapiens, UniProt Q9Y2T6); test: BRET² G protein dissociation assay, GPR55 cryo-EM construct (GFP G67A) with Gα13; conditions: for BRET2 response, Mean (plotted, Fig. S4): Cryo-EM-G67A-G13
Text: as §1, §2

In the case of `Cc1cccc(N2CCN(C(=O)c3cc(S(=O)(=O)N(C)C)ccc3N3CCCC3)CC2)c1C` [ML184, 3-[[4-(2,3-dimethylphenyl)-1-piperazinyl]carbonyl]-N,N-dimethyl-4-(1-pyrrolidinyl)benzenesulfonamide], the “Mean (plotted) BRET² response, GPR55-G152W-G13” value (“Mean … GPR55-G152W-G13” below) ([1]; Concentration 300 pM) is reported as -0.02434, the “Mean … GPR55-G152W-G13” value ([1]; Concentration 1e-9 M) is reported as -0.04124 and the “Mean … GPR55-G152W-G13” value ([1]; Concentration 3e-9 M) is reported as -0.05947. For the same compound, the “Mean … GPR55-G152W-G13” value ([1]; Concentration 1e-8 M) was -0.07141, the “Mean … GPR55-G152W-G13” value ([1]; Concentration 3e-8 M) was -0.07973 and the “Mean … GPR55-G152W-G13” value ([1]; Concentration 1e-7 M) was -0.08343. For the same compound, the “Mean … GPR55-G152W-G13” value ([1]; Concentration 3e-7 M) was -0.08701, the “Mean … GPR55-G152W-G13” value ([1]; Concentration 1e-6 M) was -0.08751 and the “Mean … GPR55-G152W-G13” value ([1]; Concentration 3e-6 M) was -0.0887. The “Mean … GPR55-G152W-G13” value ([1]; Concentration 1e-5 M) was -0.09176, the “Mean … GPR55-G152W-G13” value ([1]; Concentration 3e-5 M) was -0.09408 and the “increase of potency compared to wt GPR55” value ([1]; G152W mutant) was 34 fold. For the same compound, the Emax at 30 µM ([1]; GPR55 G152W, Gα13, 30 µM ligand, same normalization, read-out: Efficacy ± SEM (%)) was 107 ± 1%, the EC50 ([1]; GPR55 G152W, Gα13, calculated by extrapolating ΔBRET² ratios for concentrations <0.3 nM) was 0.00135 µM and the “Mean (plotted) BRET² response, GPR55-N171A-G13” value (“Mean … GPR55-N171A-G13” below) ([2]; Concentration 300 pM) was 0.002752. For the same compound, the “Mean … GPR55-N171A-G13” value ([2]; Concentration 1e-9 M) was 0.003846, the “Mean … GPR55-N171A-G13” value ([2]; Concentration 3e-9 M) was -0.0003036 and the “Mean … GPR55-N171A-G13” value ([2]; Concentration 1e-8 M) was 0.001966. For the same compound, the “Mean … GPR55-N171A-G13” value ([2]; Concentration 3e-8 M) was -0.0002448, the “Mean … GPR55-N171A-G13” value ([2]; Concentration 1e-7 M) was -0.005366 and the “Mean … GPR55-N171A-G13” value ([2]; Concentration 3e-7 M) was -0.01646. The “Mean … GPR55-N171A-G13” value ([2]; Concentration 1e-6 M) was -0.04126, the “Mean … GPR55-N171A-G13” value ([2]; Concentration 3e-6 M) was -0.05866 and the “Mean … GPR55-N171A-G13” value ([2]; Concentration 1e-5 M) was -0.07333. For the same compound, the “Mean … GPR55-N171A-G13” value ([2]; Concentration 3e-5 M) was -0.07936, the EC50 ([2]; GPR55 N171A, Gα13) was 1.05 µM and the Emax at 30 µM ([2]; GPR55 N171A, Gα13, 30 µM ligand, same normalization, read-out: Efficacy ± SEM (%)) was 73 ± 3%. The “reduction of potency compared to wt GPR55” value ([2]; N171A mutant) was 24 fold, the EC50 ([3]; Cryo-EM construct (G67A), Gα13) was 0.0182 µM and the Emax at 30 µM ([3]; Cryo-EM construct (G67A), Gα13, 30 µM ligand, same normalization, read-out: Efficacy ± SEM (%)) was 86 ± 2%. For the same compound, the “BRET2 response, Mean (plotted, Fig. S4)” value ([3]; concentration 300 pM) was 0.0007, the “BRET2 response, Mean (plotted, Fig. S4)” value ([3]; concentration 1e-9 M) was -0.00467 and the “BRET2 response, Mean (plotted, Fig. S4)” value ([3]; concentration 3e-9 M) was -0.01143. The “BRET2 response, Mean (plotted, Fig. S4)” value ([3]; concentration 1e-8 M) was -0.02458, the “BRET2 response, Mean (plotted, Fig. S4)” value ([3]; concentration 3e-8 M) was -0.03698 and the “BRET2 response, Mean (plotted, Fig. S4)” value ([3]; concentration 1e-7 M) was -0.04541. The “BRET2 response, Mean (plotted, Fig. S4)” value ([3]; concentration 3e-7 M) was -0.05211, the “BRET2 response, Mean (plotted, Fig. S4)” value ([3]; concentration 1e-6 M) was -0.05461 and the “BRET2 response, Mean (plotted, Fig. S4)” value ([3]; concentration 3e-6 M) was -0.05649. The “BRET2 response, Mean (plotted, Fig. S4)” value ([3]; concentration 1e-5 M) was -0.05972 and the “BRET2 response, Mean (plotted, Fig. S4)” value ([3]; concentration 3e-5 M) was -0.06146.

With `CCCCC[C@H](O)/C=C/[C@@H]1[C@@H](C/C=C\CCCC(=O)O)[C@H]2CO[C@@H]1C2` [U-46619] the “Mean … GPR55-G152W-G13” value ([1]; Concentration 10 pM) was 0.00225, the “Mean … GPR55-G152W-G13” value ([1]; Concentration 30 pM) was -0.00435 and the “Mean … GPR55-G152W-G13” value ([1]; Concentration 100 pM) was -0.00495. For the same compound, the “Mean … GPR55-G152W-G13” value ([1]; Concentration 300 pM) was -0.0004516, the “Mean … GPR55-G152W-G13” value ([1]; Concentration 1e-9 M) was -0.001887 and the “Mean … GPR55-G152W-G13” value ([1]; Concentration 3e-9 M) was 7.154e-5. The “Mean … GPR55-G152W-G13” value ([1]; Concentration 1e-8 M) was -0.01413, the “Mean … GPR55-G152W-G13” value ([1]; Concentration 3e-8 M) was -6.439e-5 and the “Mean … GPR55-G152W-G13” value ([1]; Concentration 1e-7 M) was 0.001032. The “Mean … GPR55-G152W-G13” value ([1]; Concentration 3e-7 M) was 0.002926, the “Mean … GPR55-G152W-G13” value ([1]; Concentration 1e-6 M) was -0.00228 and the “Mean … GPR55-G152W-G13” value ([1]; Concentration 3e-6 M) was -0.002139. The “Mean … GPR55-G152W-G13” value ([1]; Concentration 1e-5 M) was -0.008827, the “Mean … GPR55-G152W-G13” value ([1]; Concentration 3e-5 M) was -0.0048 and the “Mean … GPR55-N171A-G13” value ([2]; Concentration 10 pM) was 0.0067. For the same compound, the “Mean … GPR55-N171A-G13” value ([2]; Concentration 30 pM) was 0.0022, the “Mean … GPR55-N171A-G13” value ([2]; Concentration 100 pM) was 0.008 and the “Mean … GPR55-N171A-G13” value ([2]; Concentration 300 pM) was -0.003007. For the same compound, the “Mean … GPR55-N171A-G13” value ([2]; Concentration 1e-9 M) was 0.003546, the “Mean … GPR55-N171A-G13” value ([2]; Concentration 3e-9 M) was 0.00299 and the “Mean … GPR55-N171A-G13” value ([2]; Concentration 1e-8 M) was -0.006252. The “Mean … GPR55-N171A-G13” value ([2]; Concentration 3e-8 M) was 0.007492, the “Mean … GPR55-N171A-G13” value ([2]; Concentration 1e-7 M) was 0.005274 and the “Mean … GPR55-N171A-G13” value ([2]; Concentration 3e-7 M) was 0.006727. The “Mean … GPR55-N171A-G13” value ([2]; Concentration 1e-6 M) was 0.007007, the “Mean … GPR55-N171A-G13” value ([2]; Concentration 3e-6 M) was 0.002553 and the “Mean … GPR55-N171A-G13” value ([2]; Concentration 1e-5 M) was -0.002868. The “Mean … GPR55-N171A-G13” value ([2]; Concentration 3e-5 M) was -0.004916, the “BRET2 response, Mean (plotted, Fig. S4)” value ([3]; concentration 10 pM) was 0.00025 and the “BRET2 response, Mean (plotted, Fig. S4)” value ([3]; concentration 30 pM) was -0.003725. The “BRET2 response, Mean (plotted, Fig. S4)” value ([3]; concentration 100 pM) was -0.000225, the “BRET2 response, Mean (plotted, Fig. S4)” value ([3]; concentration 300 pM) was 0.0002 and the “BRET2 response, Mean (plotted, Fig. S4)” value ([3]; concentration 1e-9 M) was -7.5e-5. The “BRET2 response, Mean (plotted, Fig. S4)” value ([3]; concentration 3e-9 M) was 0.0017, the “BRET2 response, Mean (plotted, Fig. S4)” value ([3]; concentration 1e-8 M) was -0.0133 and the “BRET2 response, Mean (plotted, Fig. S4)” value ([3]; concentration 3e-8 M) was 0.000825. The “BRET2 response, Mean (plotted, Fig. S4)” value ([3]; concentration 1e-7 M) was 0.0026, the “BRET2 response, Mean (plotted, Fig. S4)” value ([3]; concentration 3e-7 M) was 0.003275 and the “BRET2 response, Mean (plotted, Fig. S4)” value ([3]; concentration 1e-6 M) was 0.00345.
